Source: patent US20170103183A1, “Model Generation for Drug Determination” (NORWEGIAN UNIVERSITY OF SCIENCE AND TECHNOLOGY, priority 2015, published 2017)

Test system: AGS cells xenograft tumors
Test: Subcutaneous AGS xenograft tumors in Balb/c mice
Format: in vivo
Conditions: single agent, low dose (PI103 5 mg/kg/d; (5Z)-7-oxozeaenol 3 mg/kg/d)
Method: To validate the beneficial response to one of the combination predicted and validated in cell line experiments the inventors generated subcutaneously injected xenograft tumors in Balb/c mice. 100 μl of 2×10^5 AGS cells were mixed with 100 μl of Matrigel and injected subcutaneously n the right flanks of 40 mice. Tumors were allowed to grow for 4 weeks, and mice with palpable tumors (n=30) were randomized to four groups: control, PI103 (5 mg/kg/d), (5Z)-7-oxozeaenol (3 mg/kg/d) and combination group which received both PI103 (5 mg/kg/d) and (5Z)-7oxozeaenol (3 mg/kg/d). Mice were injected with inhibitors or vehicle three times per week for a total of seven injections. Tumors were measured twice weekly using callipers and estimated volume from the formula V=0.5*d12*d2, where d1 is shortest diameter and d2 is longest diameter of tumor. Randomization was set up so that tumor volume was similar among groups at onset of treatment. […] Similar results were obtained for Mann-Whitney tests.

COc1cc(O)c2c(c1)/C=C/C[C@H](O)[C@H](O)C(=O)/C=C\C[C@H](C)OC2=O [(5Z)-7-oxozeaenol]
activity of individual agent on tumor size compared to control: non-significant

Oc1cccc(-c2nc(N3CCOCC3)c3oc4ncccc4c3n2)c1 [PI103]
activity of individual agent on tumor size compared to control: non-significant
